The values that follow come from ChEMBL document CHEMBL4483862, “Open-source discovery of chemical leads for next-generation chemoprotective antimalarials” (2018).

Each structure is given as a SMILES string.

The test has as its system Plasmodium berghei. The test can be described thus: Luciferase/luciferin-expressing antifolate-resistant parasites were used to infect a culture of HepG2 cells that were pre-incubated with compounds. Infected hepatocytes emit light due to the luciferase reaction. Assay results are presented as the percent inhibition of light emission compared to control. […]. The test is classed as functional. The note with it: sporozoite; for IC90: read-out: LUCIFERASE INFECTION ASSAY - IC90.

A word on the IC50: it is the concentration at which inhibition is half-maximal. What is called IC90 is the concentration at which the effect reaches the 90% level. `CCC1CCCCN1CC(=O)Nc1cc(C)nn1-c1nc(C)cc(C)n1` (stereo not drawn): the IC90 is above 10 µM. Where the note is “HEPG2TOX_HILL_SLOPE 4.29, HEPG2TOX_R_SQUARED 0.929, read-out: LUCIFERASE INFECTION ASSAY - IC50”, the IC50 was above 10 µM.
For `Nc1nc(Cl)cc(NCCc2ccccc2)n1`, the IC90 is above 13.3 µM. Further, the IC50 (HEPG2TOX_HILL_SLOPE 4.29, HEPG2TOX_R_SQUARED 0.965, PBLUC_HILL_SLOPE 3.15, PBLUC_R_SQUARED 0.0969, read-out: LUCIFERASE INFECTION ASSAY - IC50) came out at 10.4 µM.
In the case of `COc1ccc(OC)c(/C=C/C(=O)N2C(=O)c3cccc(N)c3C2=O)c1`, the IC90 was above 10 µM. The IC50 (HEPG2TOX_HILL_SLOPE 4.32, HEPG2TOX_R_SQUARED 0.934, PBLUC_HILL_SLOPE 15.3, PBLUC_R_SQUARED 0.377, read-out: LUCIFERASE INFECTION ASSAY - IC50) was 9.46 µM.
`CCCCNc1nc(-c2ccccc2)c(C(=O)OCC)cc1C#N`: the IC90 was determined as 9.48 µM. Also, where the note is “HEPG2TOX_HILL_SLOPE 4.31, HEPG2TOX_R_SQUARED 0.989, PBLUC_HILL_SLOPE 14.5, PBLUC_R_SQUARED 0.263, read-out: LUCIFERASE INFECTION ASSAY - IC50”, the half-maximal inhibitory concentration (IC50) came to 8.14 µM.
On to `N#C/C(=C\C=C\c1ccccc1[N+](=O)[O-])C(=O)NC1CCCCC1`, for which the IC90 stood at 4.14 µM. Besides, the IC50 (HEPG2TOX_HILL_SLOPE 4.42, HEPG2TOX_R_SQUARED 0.954, PBLUC_HILL_SLOPE 12.2, PBLUC_R_SQUARED 0.458, read-out: LUCIFERASE INFECTION ASSAY - IC50) came out at 3.46 µM.
For the molecule `COc1ccc(C(=O)Nc2nc3ccccc3[nH]2)cc1`, the IC90 was above 10 µM. Where the note is “HEPG2TOX_HILL_SLOPE 4.46, HEPG2TOX_R_SQUARED 0.552, PBLUC_HILL_SLOPE 2.95, PBLUC_R_SQUARED 0.511, read-out: LUCIFERASE INFECTION ASSAY - IC50”, the IC50 amounted to 7.58 µM.
With `O=C(O)c1c(CN2CCN(c3ccccc3)CC2)c(O)c2ccccc2c1O`, the IC90 is 8.28 µM. Also, the IC50 (HEPG2TOX_HILL_SLOPE 4.36, HEPG2TOX_R_SQUARED 0.83, PBLUC_HILL_SLOPE 4.96, PBLUC_R_SQUARED 0.0239, read-out: LUCIFERASE INFECTION ASSAY - IC50) was determined as 5.31 µM.
With `O=C(CNc1cccc(S(=O)(=O)N2CCCCC2)c1)NC(=O)NC1CCCC1`, the concentration for an effect of 90% (IC90) is above 10 µM. For the same molecule, for the setting “HEPG2TOX_HILL_SLOPE 4.49, HEPG2TOX_R_SQUARED 0.873, PBLUC_HILL_SLOPE 2.27, PBLUC_R_SQUARED 0.353, read-out: LUCIFERASE INFECTION ASSAY - IC50”, the IC50 came to 7.49 µM.
`CN1CCN(c2ccc(-c3cn4c(-c5ccc6ncccc6c5)cnc4cn3)cn2)CC1`: the IC90 amounted to 3.03 µM. For the same molecule, the IC50 (HEPG2TOX_HILL_SLOPE 4.41, HEPG2TOX_R_SQUARED 0.745, PBLUC_HILL_SLOPE 17.7, PBLUC_R_SQUARED 0.338, read-out: LUCIFERASE INFECTION ASSAY - IC50) was determined as 2.68 µM.
Consider `CC(=O)Nc1ccc(Nc2cc3c(cn2)nc(-c2ccccc2)n3C)cc1`, for which the IC90 is 3.77 µM. Besides, the IC50 (HEPG2TOX_HILL_SLOPE 4.43, HEPG2TOX_R_SQUARED 0.848, PBLUC_HILL_SLOPE 16.8, PBLUC_R_SQUARED 0.556, read-out: LUCIFERASE INFECTION ASSAY - IC50) turned out to be 3.31 µM.
Consider `O=C(NN=CC1C(=O)N(c2ccccc2C(F)(F)F)C(=O)c2ccccc21)c1ccc(F)cc1` (stereo not drawn), for which the IC90 was above 10 µM. The IC50 (HEPG2TOX_HILL_SLOPE 4.25, HEPG2TOX_R_SQUARED 0.761, PBLUC_HILL_SLOPE 4.13, PBLUC_R_SQUARED 0.557, read-out: LUCIFERASE INFECTION ASSAY - IC50) was 5.89 µM.
`CCS(=O)(=O)c1ncc(Cl)c(C(=O)Nc2ccccc2C(F)(F)F)n1`: the IC90 worked out at 4.41 µM. In addition, the IC50 (HEPG2TOX_HILL_SLOPE 4.53, HEPG2TOX_R_SQUARED 0.715, PBLUC_HILL_SLOPE 8.07, PBLUC_R_SQUARED 0.684, read-out: LUCIFERASE INFECTION ASSAY - IC50) was found to be 3.36 µM.
For `COc1cc(C(=O)NNC(=O)c2nn(-c3ccccc3)cc2O)cc(OC)c1OC`, the IC90 was above 10 µM. The IC50 (HEPG2TOX_HILL_SLOPE 4.57, HEPG2TOX_R_SQUARED 0.844, PBLUC_HILL_SLOPE 7.94, PBLUC_R_SQUARED 0.6, read-out: LUCIFERASE INFECTION ASSAY - IC50) came to 8.48 µM.
On to `CCOc1ccc(C=C(c2nc3ccccc3s2)c2nc3ccccc3s2)cc1OC`, for which the IC90 amounted to 4.51 µM. For the same molecule, the IC50 (HEPG2TOX_HILL_SLOPE 4.58, HEPG2TOX_R_SQUARED 0.874, PBLUC_HILL_SLOPE 9.07, PBLUC_R_SQUARED 0.629, read-out: LUCIFERASE INFECTION ASSAY - IC50) is 3.54 µM.
As for `N#C/C(=C(\Oc1ccccc1)C(F)(F)F)c1ccccc1`, the IC90 came out at 10.9 µM. The IC50 (HEPG2TOX_HILL_SLOPE 4.45, HEPG2TOX_R_SQUARED 0.985, PBLUC_HILL_SLOPE 11.8, PBLUC_R_SQUARED 0.682, read-out: LUCIFERASE INFECTION ASSAY - IC50) was found to be 9.07 µM.
As to `Cc1cc(NCc2ccccn2)n2nc(C)c(-c3ccccc3Cl)c2n1`, the IC90 amounted to 5.5 µM. In addition, where the note is “HEPG2TOX_HILL_SLOPE 4.48, HEPG2TOX_R_SQUARED 0.152, PBLUC_HILL_SLOPE 2.08, PBLUC_R_SQUARED 0.431, read-out: LUCIFERASE INFECTION ASSAY - IC50”, the IC50 worked out at 1.91 µM.
As for `CCN1C(=O)N(Cc2cccc(OC)c2)C(=O)C12CCN(C(C)CCc1c[nH]c3ccccc13)CC2` (stereo not drawn), the IC90 was determined as 5.56 µM. Also, the IC50 (HEPG2TOX_HILL_SLOPE 4.28, HEPG2TOX_R_SQUARED 0.784, PBLUC_HILL_SLOPE 3.57, PBLUC_R_SQUARED 0.572, read-out: LUCIFERASE INFECTION ASSAY - IC50) was determined as 3 µM.
For `CC1(C)C2CCC1(C)C(NC(=O)COc1ccc(Br)cc1Cl)C2` (stereo not drawn), the IC90 amounted to 8.17 µM. Also, where the note is “HEPG2TOX_HILL_SLOPE 4.37, HEPG2TOX_R_SQUARED 0.564, PBLUC_HILL_SLOPE 4.64, PBLUC_R_SQUARED 0.01, read-out: LUCIFERASE INFECTION ASSAY - IC50”, the IC50 amounted to 5.08 µM.
On to `Clc1cccc(Cl)c1/C=C/c1nc2ccccc2n1Cc1ccccc1`, for which the IC90 was above 8.7 µM. For the setting “HEPG2TOX_HILL_SLOPE 4.4, HEPG2TOX_R_SQUARED 0.96, PBLUC_HILL_SLOPE 4.2, PBLUC_R_SQUARED 0.29, read-out: LUCIFERASE INFECTION ASSAY - IC50”, the IC50 turned out to be 5.61 µM.
As to `CCOc1ccc(S(=O)(=O)Nc2cc3c4c(oc3c3ccccc23)CC(C)(C)CC4=O)cc1`, the IC90 is 6.15 µM. Further, the IC50 (HEPG2TOX_HILL_SLOPE 4.2, HEPG2TOX_R_SQUARED 0.972, PBLUC_HILL_SLOPE 5.12, PBLUC_R_SQUARED 0.622, read-out: LUCIFERASE INFECTION ASSAY - IC50) came to 4.01 µM.
As for `O=C(Cc1cccs1)Nc1nc2ccccc2nc1N1CCCC1`, the IC90 was above 10 µM. The IC50 (HEPG2TOX_HILL_SLOPE 4.38, HEPG2TOX_R_SQUARED 0.169, read-out: LUCIFERASE INFECTION ASSAY - IC50) is above 10 µM.
As for `CCCn1c(C)cc(/C=C(\C#N)C(=O)Nc2c(C)cccc2C(C)C)c1C`, the IC90 is 2.35 µM. In addition, for the setting “HEPG2TOX_HILL_SLOPE 4.53, HEPG2TOX_R_SQUARED 0.804, PBLUC_HILL_SLOPE 3.44, PBLUC_R_SQUARED 0.565, read-out: LUCIFERASE INFECTION ASSAY - IC50”, the IC50 was 1.24 µM.
Consider `COc1ccc(C2=NN=C/C2=N\Nc2cc(C)cc(C)c2)cc1`, for which the IC90 is 4.13 µM. The IC50 (HEPG2TOX_HILL_SLOPE 4.29, HEPG2TOX_R_SQUARED 0.94, PBLUC_HILL_SLOPE 14.3, PBLUC_R_SQUARED 0.412, read-out: LUCIFERASE INFECTION ASSAY - IC50) was 3.54 µM.
Turning to `Cc1cc2ccccn2c1C(=O)c1nc(S(C)(=O)=O)ncc1Cl`, the IC90 was above 10 µM. For the same molecule, for the setting “HEPG2TOX_HILL_SLOPE 4.52, HEPG2TOX_R_SQUARED 0.995, PBLUC_HILL_SLOPE 10.9, PBLUC_R_SQUARED 0.162, read-out: LUCIFERASE INFECTION ASSAY - IC50”, the IC50 came to 8.19 µM.
For the molecule `COC(=O)c1ccc(N2CCN(c3ccccc3Cl)CC2)nc1`, the IC90 is above 9.95 µM. Besides, where the note is “HEPG2TOX_HILL_SLOPE 4.29, HEPG2TOX_R_SQUARED 0.95, PBLUC_HILL_SLOPE 9.99, PBLUC_R_SQUARED 0.342, read-out: LUCIFERASE INFECTION ASSAY - IC50”, the IC50 is 8.41 µM.
As to `O=C1c2ccccc2C(O)(C#Cc2ccccc2)N1c1ccccc1` (stereo not drawn), the IC90 came to 8.45 µM. For the same molecule, the IC50 (HEPG2TOX_HILL_SLOPE 4.52, HEPG2TOX_R_SQUARED 0.977, PBLUC_HILL_SLOPE 3.23, PBLUC_R_SQUARED 0.385, read-out: LUCIFERASE INFECTION ASSAY - IC50) was 4.28 µM.
Turning to `Cc1cc(Br)ccc1OCC(=O)NC(C)c1ccccc1` (stereo not drawn), the IC90 was above 9.48 µM. Moreover, the IC50 (HEPG2TOX_HILL_SLOPE 4.44, HEPG2TOX_R_SQUARED 0.285, read-out: LUCIFERASE INFECTION ASSAY - IC50) is above 9.48 µM.
As to `O=C1OC(c2ccc(C(=O)c3ccccc3)cc2)=N/C1=C1\CCCCCN1`, the IC90 is above 10 µM. For the same molecule, where the note is “HEPG2TOX_HILL_SLOPE 4.29, HEPG2TOX_R_SQUARED 0.683, PBLUC_HILL_SLOPE 20.1, PBLUC_R_SQUARED 0.207, read-out: LUCIFERASE INFECTION ASSAY - IC50”, the IC50 was determined as 9.14 µM.
Regarding `O=C(Nc1ccccc1)N1CCc2nc(NCc3cccc(Oc4ccccc4)c3)ncc2C1`, the IC90 is 3.15 µM. For the same molecule, the IC50 (HEPG2TOX_HILL_SLOPE 4.26, HEPG2TOX_R_SQUARED 0.801, PBLUC_HILL_SLOPE 11.5, PBLUC_R_SQUARED 0.365, read-out: LUCIFERASE INFECTION ASSAY - IC50) worked out at 2.6 µM.
